Source: patent USRE43879E1, “Use of the dextrogyral enantiomer of milnacipran for the preparation of a drug” (priority 2003, dated 2012)

Key:
primary rat hepatocytes [1] = assay: Safe-Hit genomic test of predictive toxicology (Toxicity Index) on primary rat hepatocytes; assay type: cell-based; details: 16 h
Source text: After treatment of the primary rat hepatocytes in culture, the RNA was extracted in order to generate labelled complementary-DNA probes which were then hybridised on a membrane containing 682 alternatively-spliced fragments specific to cell stress. A Toxicity Index was obtained for each of the products by comparing the hybridisation profile of the treated cells with that of the untreated cells.
Safe-Hit allows molecules within a chemical series to be ranked according to a Toxic Index, determined after the following basic steps (systematically performed in duplicate for each product): • treatment of the cells lines with the various products at three different concentrations, deduced from a preliminary cytotoxicology test (MTT-assay): a reference concentration corresponding to 80% cell viability, a concentration 10-fold higher—when possible—and a concentration 10-fold lower, • preparation of total RNA and of the corresponding radio-labelled cDNA probes, • hybridisation of the cDNA probes: the Safe-Hit macroarray contains 682 independent clones, corresponding to alterations in gene splicing induced by overexpression of WTp53 (p53 is the most ubiquitous “mediator” of cell stress, chosen for the development of this methodology), • acquisition and determination of the Toxicity Index. 4.1.2. Cells
The cells used in the study (preliminary MTT-assay of cytotoxicity and the main test) are cryopreserved hepatocytes from Sprague-Dawley rats in primary culture (batches Hep184005 and Hep184006-Biopredic), cultured under standard conditions.
The cells are seeded and cultured for 16 hours with each product, at the three concentrations chosen on the basis of the preliminary MTT-assay; two controls (untreated cells in solvent alone) are added to the series.
The results of the two Safe-Hit analyses are then compared and combined to assess the potential toxicity of the various compounds tested. Two parameters that can be modified by the user are involved in the calculation of the Toxicity Index: • Background Threshold (BT) smoothes out weak signals, close to background noise and not attributable to significant gene expression. […] The value of this parameter is usually 2 or less than 2 in order to obtain relevant results. […]
Toxicity Indices (TI) were determined as described above. […] Two separate analyses were performed using two levels of differentiation (Induction Factor-IF) in relation to the untreated controls: • a factor of at least 1.7 in relation to the untreated controls. This factor of 1.7 times represents the weakest value that allows an index not to be obtained in relation to the two untreated controls. • a factor of at least 2 in relation to the untreated controls. This factor of 2 times allows the most robust signals to be taken into account. 4.3.1. Induction Factor of 1.7 in Relation to Untreated Control (Table 7)

primary rat hepatocytes [2] = assay: Cytotoxicity test (MTT-assay) on primary rat hepatocytes; assay type: cell-based; details: 16 hours
Protocol: The […] and […] compounds, enantiomers of the racemic molecule […], as well as clomipramine, a reference product, (coded […] in the study) were assessed in the present study. The two enantiomers, […] and […], were first assessed in a preliminary cytotoxicity text (MTT-assay) on primary rat hepatocytes, in order to select the three concentrations to be used in the final test. The cells used in the study (preliminary MTT-assay of cytotoxicity and the main test) are cryopreserved hepatocytes from Sprague-Dawley rats in primary culture (batches Hep184005 and Hep184006-Biopredic), cultured under standard conditions. […] Formazan is solubilised in an organic solvent and the solution obtained can be measured by spectrophotometry. The absorbance measured is proportional to the number of surviving cells. The cells are put into contact with the product to be tested at […] (0-1-10-25-50 and 100 μM) for 16 hours. After this period of exposure, an MTT solution (0.5 mg/ml in the incubation medium of the primary hepatocytes) is added for 3 hours. After solubilisation of the formazan crystals, the multi-well plates are read with a spectrophotometer at 500 nm in order to determine the percentage of cell viability. These assays were performed in triplicate on primary rat hepatocytes exposed for 16 hours.

CN(C)CCCN1c2ccccc2CCc2ccc(Cl)cc21 [C218, clomipramine]
Clone A09 (H. sapiens mitochondrion, 12S), regulation factor vs untreated control (primary rat hepatocytes [1]; 1 μM): 2.90 | Clone AA11 (H. sapiens Repeat sequence AluJb fragment inserted into a cDNA coding for an unknown protein), regulation factor vs untreated control (primary rat hepatocytes [1]; 1 μM): 0.38 | Clone AC13 (H. sapiens 7S RNA L gene), regulation factor vs untreated control (primary rat hepatocytes [1]; 1 μM): 0.28 | Clone C01 (H. sapiens mitochondrion, 16S), regulation factor vs untreated control (primary rat hepatocytes [1]; 1 μM): 1.93 | Clone T08 (H. sapiens mRNA for KIAA1185 protein), regulation factor vs untreated control (primary rat hepatocytes [1]; 1 μM): 0.35 | Clone U04 (H. sapiens translation initiation factor elF-2alpha mRNA), regulation factor vs untreated control (primary rat hepatocytes [1]; 1 μM): 0.48 | Clone X02 (unk), regulation factor vs untreated control (primary rat hepatocytes [1]; 1 μM): 0.36 | Clone X06 (H. sapiens Genomic sequence from 9q34), regulation factor vs untreated control (primary rat hepatocytes [1]; 1 μM): 0.23 | Clone Z13 (unk), regulation factor vs untreated control (primary rat hepatocytes [1]; 1 μM): 0.34 | Clone A09 (H. sapiens mitochondrion, 12S), regulation factor vs untreated control (primary rat hepatocytes [1]; 10 μM): 2.23 | Clone AA11 (H. sapiens Repeat sequence AluJb fragment inserted into a cDNA coding for an unknown protein), regulation factor vs untreated control (primary rat hepatocytes [1]; 10 μM): 0.27 | Clone AC13 (H. sapiens 7S RNA L gene), regulation factor vs untreated control (primary rat hepatocytes [1]; 10 μM): 0.16 | Clone B20 (H. sapiens chromosome 19, BAC CIT-B-191n6), regulation factor vs untreated control (primary rat hepatocytes [1]; 10 μM): 0.14 | Clone B22 (H. sapiens Genomic sequence from 17), regulation factor vs untreated control (primary rat hepatocytes [1]; 10 μM): 0.17 | Clone C01 (H. sapiens mitochondrion, 16S), regulation factor vs untreated control (primary rat hepatocytes [1]; 10 μM): 1.82 | Clone E05 (H. sapiens DNA sequence from clone 740A11 on chromosome Xq22.2-23, part of COL4A5 gene), regulation factor vs untreated control (primary rat hepatocytes [1]; 10 μM): 0.22 | Clone E21 (H. sapiens ribosomal protein S14 gene), regulation factor vs untreated control (primary rat hepatocytes [1]; 10 μM): 0.56 | Clone M12 (H. sapiens mRNA; cDNA DKFZp564C1563), regulation factor vs untreated control (primary rat hepatocytes [1]; 10 μM): 0.16 | Clone T08 (H. sapiens mRNA for KIAA1185 protein), regulation factor vs untreated control (primary rat hepatocytes [1]; 10 μM): 0.14 | Clone U04 (H. sapiens translation initiation factor elF-2alpha mRNA), regulation factor vs untreated control (primary rat hepatocytes [1]; 10 μM): 0.22 | Clone X02 (unk), regulation factor vs untreated control (primary rat hepatocytes [1]; 10 μM): 0.24 | Clone X05 (H. sapiens microsomal epoxide hydrolase (EPHX) gene), regulation factor vs untreated control (primary rat hepatocytes [1]; 10 μM): 0.15 | Clone X06 (H. sapiens Genomic sequence from 9q34), regulation factor vs untreated control (primary rat hepatocytes [1]; 10 μM): 0.15 | Clone Z13 (unk), regulation factor vs untreated control (primary rat hepatocytes [1]; 10 μM): 0.29 | Clone A09 (H. sapiens mitochondrion, 12S), regulation factor vs untreated control (primary rat hepatocytes [1]; 100 μM): 2.14 | Clone AA11 (H. sapiens Repeat sequence AluJb fragment inserted into a cDNA coding for an unknown protein), regulation factor vs untreated control (primary rat hepatocytes [1]; 100 μM): 0.31 | Clone AA13 (H. sapiens 18S rRNA gene), regulation factor vs untreated control (primary rat hepatocytes [1]; 100 μM): 1.79 | Clone AC13 (H. sapiens 7S RNA L gene), regulation factor vs untreated control (primary rat hepatocytes [1]; 100 μM): 0.28 | Clone B20 (H. sapiens chromosome 19, BAC CIT-B-191n6), regulation factor vs untreated control (primary rat hepatocytes [1]; 100 μM): 0.27 | Clone B22 (H. sapiens Genomic sequence from 17), regulation factor vs untreated control (primary rat hepatocytes [1]; 100 μM): 0.32 | Clone C01 (H. sapiens mitochondrion, 16S), regulation factor vs untreated control (primary rat hepatocytes [1]; 100 μM): 1.91 | Clone E01 (H. sapiens mRNA for lipocortin II), regulation factor vs untreated control (primary rat hepatocytes [1]; 100 μM): 1.73 | Clone E05 (H. sapiens DNA sequence from clone 740A11 on chromosome Xq22.2-23, part of COL4A5 gene), regulation factor vs untreated control (primary rat hepatocytes [1]; 100 μM): 0.35 | Clone E19 (H. sapiens mitochondrion, cytochrome c oxidase subunit 1), regulation factor vs untreated control (primary rat hepatocytes [1]; 100 μM): 1.72 | Clone E21 (H. sapiens ribosomal protein S14 gene), regulation factor vs untreated control (primary rat hepatocytes [1]; 100 μM): 0.58 | Clone F24 (H. sapiens LIM homeobox protein cofactor (CLIM-1) mRNA), regulation factor vs untreated control (primary rat hepatocytes [1]; 100 μM): 0.52 | Clone G01 (H. sapiens estrogen receptor-related protein (variant ER from breast cancer) mRNA), regulation factor vs untreated control (primary rat hepatocytes [1]; 100 μM): 2.04 | Clone G05 (H. sapiens mitochondrion, cytochrome c oxidase subunit 1), regulation factor vs untreated control (primary rat hepatocytes [1]; 100 μM): 2.02 | Clone G09 (H. sapiens mitochondrion, cytochrome b), regulation factor vs untreated control (primary rat hepatocytes [1]; 100 μM): 1.76 | Clone I18 (H. sapiens 18S rRNA gene), regulation factor vs untreated control (primary rat hepatocytes [1]; 100 μM): 1.88 | Clone L23 (H. sapiens cDNA NIH_MGC_16 clone IMAGE: 3350241 5′, mRNA sequence), regulation factor vs untreated control (primary rat hepatocytes [1]; 100 μM): 1.75 | Clone M07 (H. sapiens mitochondrion, cytochrome c oxidase subunit 1), regulation factor vs untreated control (primary rat hepatocytes [1]; 100 μM): 1.75 | Clone M12 (H. sapiens mRNA; cDNA DKFZp564C1563), regulation factor vs untreated control (primary rat hepatocytes [1]; 100 μM): 0.39 | Clone Q11 (unk), regulation factor vs untreated control (primary rat hepatocytes [1]; 100 μM): 1.92 | Clone S01 (Mus muculus TCR beta locus), regulation factor vs untreated control (primary rat hepatocytes [1]; 100 μM): 2.98 | Clone T08 (H. sapiens mRNA for KIAA1185 protein), regulation factor vs untreated control (primary rat hepatocytes [1]; 100 μM): 0.22 | Clone U04 (H. sapiens translation initiation factor elF-2alpha mRNA), regulation factor vs untreated control (primary rat hepatocytes [1]; 100 μM): 0.37 | Clone X02 (unk), regulation factor vs untreated control (primary rat hepatocytes [1]; 100 μM): 0.31 | Clone X05 (H. sapiens microsomal epoxide hydrolase (EPHX) gene), regulation factor vs untreated control (primary rat hepatocytes [1]; 100 μM): 0.24 | Clone X06 (H. sapiens Genomic sequence from 9q34), regulation factor vs untreated control (primary rat hepatocytes [1]; 100 μM): 0.23 | Clone Z13 (unk), regulation factor vs untreated control (primary rat hepatocytes [1]; 100 μM): 0.27 | Clone Z20 (Homo sapiens cDNA wc44h09, similar to RAS_RELATED PROTEIN RAB-24, mRNA sequence), regulation factor vs untreated control (primary rat hepatocytes [1]; 100 μM): 0.57 | Number of down-regulated clones (Down) (primary rat hepatocytes [1]; Induction Factor 1.7, 1 μM): 7 | Number of up-regulated clones (Up) (primary rat hepatocytes [1]; Induction Factor 1.7, 1 μM): 2 | Toxicity Index (TI, number of signatures) (primary rat hepatocytes [1]; Induction Factor 1.7, 1 μM): 9 | Number of down-regulated clones (Down) (primary rat hepatocytes [1]; Induction Factor 1.7, 10 μM): 13 | Number of up-regulated clones (Up) (primary rat hepatocytes [1]; Induction Factor 1.7, 10 μM): 2 | Toxicity Index (TI, number of signatures) (primary rat hepatocytes [1]; Induction Factor 1.7, 10 μM): 15 | Toxicity Index (TI, number of signatures) (primary rat hepatocytes [1]; Induction Factor 1.7, 50 μM): 28 | Number of down-regulated clones (Down) (primary rat hepatocytes [1]; Induction Factor 1.7, 100 μM): 15 | Number of up-regulated clones (Up) (primary rat hepatocytes [1]; Induction Factor 1.7, 100 μM): 13 | Toxicity Index (TI, number of signatures) (primary rat hepatocytes [1]; Induction Factor 1.7, 100 μM): 28 | Number of down-regulated clones (Down) (primary rat hepatocytes [1]; Induction Factor 2, 1 μM): 7 | Number of up-regulated clones (Up) (primary rat hepatocytes [1]; Induction Factor 2, 1 μM): 1 | Toxicity Index (TI, number of signatures) (primary rat hepatocytes [1]; Induction Factor 2, 1 μM): 8 | Number of down-regulated clones (Down) (primary rat hepatocytes [1]; Induction Factor 2, 10 μM): 12 | Number of up-regulated clones (Up) (primary rat hepatocytes [1]; Induction Factor 2, 10 μM): 1 | Toxicity Index (TI, number of signatures) (primary rat hepatocytes [1]; Induction Factor 2, 10 μM): 13 | Toxicity Index (TI, number of signatures) (primary rat hepatocytes [1]; Induction Factor 2, 50 μM): 16 | Number of down-regulated clones (Down) (primary rat hepatocytes [1]; Induction Factor 2, 100 μM): 12 | Number of up-regulated clones (Up) (primary rat hepatocytes [1]; Induction Factor 2, 100 μM): 4 | Toxicity Index (TI, number of signatures) (primary rat hepatocytes [1]; Induction Factor 2, 100 μM): 16 | Toxicity in MTT-assay (primary rat hepatocytes [2]; 25 μM): no toxicity was observed | Cell viability in MTT-assay (primary rat hepatocytes [2]; 50 μM): greater than 80% | Cytotoxicity / cell viability in MTT-assay (primary rat hepatocytes [2]; 100 μM): no cell viability was observed
